Measured values as given in US20030186967A1, “Acylresorcinol derivatives are selective vitronectin receptor inhibitors” (American Home Products Corporation, priority 1998, published 2003).

Each compound was assayed against T1, Vitronectin receptor αVβ3 (Homo sapiens, UniProt P05106+P06756) (assay: Vitronectin Receptor αVβ3 Binding Assay). Conditions: read-out: VnR (IC50μM).
T1 construct: expressed in transfected cells; host or cells: 512P5 cells (plasma membrane preparation)
T1 sequence (P06756 31-889 limits assumed): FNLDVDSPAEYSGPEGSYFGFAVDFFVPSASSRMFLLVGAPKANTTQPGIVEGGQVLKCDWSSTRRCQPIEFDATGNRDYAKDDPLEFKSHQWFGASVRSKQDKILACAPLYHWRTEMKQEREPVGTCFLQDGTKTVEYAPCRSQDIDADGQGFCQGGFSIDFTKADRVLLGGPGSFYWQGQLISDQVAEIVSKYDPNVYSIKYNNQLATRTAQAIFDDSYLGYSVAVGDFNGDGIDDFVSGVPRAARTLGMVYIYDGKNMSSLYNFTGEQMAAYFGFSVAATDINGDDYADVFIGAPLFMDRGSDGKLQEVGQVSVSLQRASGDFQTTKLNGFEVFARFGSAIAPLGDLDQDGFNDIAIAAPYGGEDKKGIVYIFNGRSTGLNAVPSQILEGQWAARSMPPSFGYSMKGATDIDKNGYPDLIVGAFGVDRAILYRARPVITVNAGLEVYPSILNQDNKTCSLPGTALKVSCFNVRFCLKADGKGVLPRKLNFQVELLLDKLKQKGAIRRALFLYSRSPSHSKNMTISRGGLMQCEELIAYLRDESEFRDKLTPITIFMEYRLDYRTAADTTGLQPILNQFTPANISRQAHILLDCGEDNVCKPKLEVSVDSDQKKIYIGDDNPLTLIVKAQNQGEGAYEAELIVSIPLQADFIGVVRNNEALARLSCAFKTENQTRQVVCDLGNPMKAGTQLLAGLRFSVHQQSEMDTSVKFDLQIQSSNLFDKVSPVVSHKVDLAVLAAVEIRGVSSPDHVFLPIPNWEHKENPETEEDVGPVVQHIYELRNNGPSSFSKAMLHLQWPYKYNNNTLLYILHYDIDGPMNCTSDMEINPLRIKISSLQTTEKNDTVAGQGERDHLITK
T1 sequence (P06756 891-1048 partner limits assumed): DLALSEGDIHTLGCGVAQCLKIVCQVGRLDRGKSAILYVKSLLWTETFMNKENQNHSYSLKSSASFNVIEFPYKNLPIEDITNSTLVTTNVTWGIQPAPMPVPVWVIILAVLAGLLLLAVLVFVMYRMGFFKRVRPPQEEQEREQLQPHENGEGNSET
T1 sequence (P05106 27-788): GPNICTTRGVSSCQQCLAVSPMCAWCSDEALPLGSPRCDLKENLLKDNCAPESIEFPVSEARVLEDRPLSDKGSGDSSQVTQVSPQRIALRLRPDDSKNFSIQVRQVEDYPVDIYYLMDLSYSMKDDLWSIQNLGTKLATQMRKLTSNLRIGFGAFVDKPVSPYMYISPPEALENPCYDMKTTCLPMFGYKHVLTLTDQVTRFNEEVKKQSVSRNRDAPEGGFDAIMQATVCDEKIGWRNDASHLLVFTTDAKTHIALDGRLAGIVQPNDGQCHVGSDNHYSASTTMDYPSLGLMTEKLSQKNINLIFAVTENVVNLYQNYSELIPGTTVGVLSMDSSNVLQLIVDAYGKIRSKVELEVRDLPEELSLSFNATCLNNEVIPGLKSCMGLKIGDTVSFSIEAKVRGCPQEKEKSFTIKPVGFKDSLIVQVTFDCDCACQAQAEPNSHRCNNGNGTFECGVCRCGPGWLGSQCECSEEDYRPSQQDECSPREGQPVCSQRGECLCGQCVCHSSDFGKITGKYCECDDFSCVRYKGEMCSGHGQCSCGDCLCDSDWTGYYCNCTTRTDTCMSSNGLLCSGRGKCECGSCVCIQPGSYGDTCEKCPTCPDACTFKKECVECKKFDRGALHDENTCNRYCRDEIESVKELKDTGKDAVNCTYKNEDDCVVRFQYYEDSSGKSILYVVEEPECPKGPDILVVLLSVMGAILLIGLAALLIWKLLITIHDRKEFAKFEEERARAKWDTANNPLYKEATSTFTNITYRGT

| IC50 [µM] | Compound |
| --- | --- |
| 5 | C=CCOC(=O)N[C@@H](CNC(=O)c1ccc(OCCNC(=O)NCc2ccccc2)cc1O)C(=O)O [Example 225, (2S)-2-{[(allyloxy)carbonyl]amino}-3-{[4-(2-{[(benzylamino)carbonyl]amino}-ethoxy)-2-hydroxybenzoyl]amino}propanoic acid] |
| 5.2 | C=CCCOC(=O)N[C@@H](CNC(=O)c1ccc(OCCNC(=O)NCc2ccccc2)cc1O)C(=O)O [Example 226, (2S)-3-{[4-(2-{[(benzylamino)carbonyl]amino}ethoxy)-2-hydroxybenzoyl]amino}-2-{[(but-3-enyloxy)carbonyl]amino}propanoic acid] |
| 5.1 | C#CCOC(=O)N[C@@H](CNC(=O)c1ccc(OCCNC(=O)NCc2ccccc2)cc1O)C(=O)O [Example 227, (2S)-3-{[4-(2-{[(benzylamino)carbonyl]amino}ethoxy)-2-hydroxybenzoyl]amino}-2-{[(prop-2-ynyloxy)carbonyl]amino}propanoic acid] |
| 10.2 | CCCCCCOC(=O)N[C@@H](CNC(=O)c1ccc(OCCNC(=O)NCc2ccccc2)cc1O)C(=O)O [Example 228, (2S)-3-{[4-(2-{[(benzylamino)carbonyl]amino}ethoxy)-2-hydroxybenzoyl]amino}-2-{[(hexyloxy)carbonyl]amino}propanoic acid] |
| 17.1 | CCCCCCCCOC(=O)N[C@@H](CNC(=O)c1ccc(OCCNC(=O)NCc2ccccc2)cc1O)C(=O)O [Example 229, (2S)-3-{[4-(2-{[(benzylamino)carbonyl]amino}ethoxy)-2-hydroxybenzoyl]amino}-2-{[(octyloxy)carbonyl]amino}propanoic acid] |
| 4 | O=C(NCCOc1ccc(C(=O)NC[C@H](NC(=O)OCC(Cl)(Cl)Cl)C(=O)O)c(O)c1)NCc1ccccc1 [Example 230, (2S)-3-{[4-(2-{[(benzylamino)carbonyl]amino}ethoxy)-2-hydroxybenzoyl]amino}-2-{[(2,2,2-trichloroethoxy)carbonyl]amino}propanoic acid] |
| 3.3 | O=C(NCCOc1ccc(C(=O)NC[C@H](NC(=O)OCc2ccccc2)C(=O)O)c(O)c1)NCc1cccnc1 [Example 233] |
| 8.7 | COC(=O)N[C@@H](CNC(=O)c1ccc(OCCNC(=O)NCc2cccnc2)cc1O)C(=O)O [Example 234, (2S)-3-({2-hydroxy-4-[2-({[(pyridin-3-ylmethyl)amino]carbonyl}-amino)ethoxy]-benzoyl}amino)-2-[(methoxycarbonyl)amino]propanoic acid] |
| 3 | CCOC(=O)N[C@@H](CNC(=O)c1ccc(OCCNC(=O)NCc2cccnc2)cc1O)C(=O)O [Example 235, (2S)-2-[(ethoxycarbonyl)amino]-3-({2-hydroxy-4-[2-({[(pyridin-3-ylmethyl)amino]-carbonyl}amino)ethoxy]benzoyl}amino)propanoic acid] |
| 1.9 | CCCOC(=O)N[C@@H](CNC(=O)c1ccc(OCCNC(=O)NCc2cccnc2)cc1O)C(=O)O [Example 236] |
| 2.7 | CC(C)OC(=O)N[C@@H](CNC(=O)c1ccc(OCCNC(=O)NCc2cccnc2)cc1O)C(=O)O [Example 237, (2S)-3-({2-hydroxy-4-[2-({[(pyridin-3-ylmethyl)amino]carbonyl}-amino)ethoxy]-benzoyl}amino)-2-[(isopropoxycarbonyl)amino]propanoic acid] |
| 2.1 | C=CCCOC(=O)N[C@@H](CNC(=O)c1ccc(OCCNC(=O)NCc2cccnc2)cc1O)C(=O)O [Example 239, (2S)-2-{[(but-3-enyloxy)carbonyl]amino}-3-({2-hydroxy-4-[2-({[(pyridin-3-ylmethyl)amino]carbonyl}amino)ethoxy]benzoyl}amino)propanoic acid] |
| 4.1 | CCCCCCOC(=O)N[C@@H](CNC(=O)c1ccc(OCCNC(=O)NCc2cccnc2)cc1O)C(=O)O [Example 241, (2S)-2-{[(hexyloxy)carbonyl]amino}-3-({2-hydroxy-4-[2-({[(pyridin-3-ylmethyl)-amino]carbonyl}amino)ethoxy]benzoyl}amino)propanoic acid] |
| 7.9 | CCCCCCCCOC(=O)N[C@@H](CNC(=O)c1ccc(OCCNC(=O)NCc2cccnc2)cc1O)C(=O)O [Example 242, (2S)-3-({2-hydroxy-4-[2-({[(pyridin-3-ylmethyl)amino]carbonyl}-amino)ethoxy]-benzoyl}amino)-2-{[(octyloxy)carbonyl]amino}propanoic acid] |
| 0.69 | CC(C)(C)COC(=O)N[C@@H](CNC(=O)c1ccc(OCCNC(=O)NCc2cccnc2)cc1O)C(=O)O [Example 243, (2S)-3-({2-hydroxy-4-[2-({[(pyridin-3-ylmethyl)amino]carbonyl}-amino)ethoxy]-benzoyl}amino)-2-{[(neopentyloxy)carbonyl]amino}propanoic acid] |
| 1.6 | O=C(NCCOc1ccc(C(=O)NC[C@H](NC(=O)OCC(Cl)(Cl)Cl)C(=O)O)c(O)c1)NCc1cccnc1 [Example 244, (2S)-3-({2-hydroxy-4-[2-({[(pyridin-3-ylmethyl)amino]carbonyl}amino)-ethoxy]benzoyl}amino)-2-{[(2,2,2-trichloroethoxy)carbonyl]amino}propanoic acid] |
| 5.5 | O=C(NCCOc1ccc(C(=O)NC[C@H](NC(=O)OCc2ccccc2)C(=O)O)c(O)c1)NCc1ccncc1 [Example 247, (2S)-2-{[(benzyloxy)carbonyl]amino}-3-({2-hydroxy-4-[2-({[(pyridin-4-ylmethyl)amino]carbonyl}amino)ethoxy]benzoyl}amino)propanoic acid] |
| 5.31 | CCCCCCOC(=O)N[C@@H](CNC(=O)c1ccc(OCCNC(=O)NCc2ccncc2)cc1O)C(=O)O [Example 255, (2S)-2-{[(hexyloxy)carbonyl]amino}-3-({2-hydroxy-4-[2-({[(pyridin-4-ylmethyl)amino]carbonyl}amino)ethoxy]benzoyl}amino)propanoic acid] |
| 9.08 | CCCCCCCCOC(=O)N[C@@H](CNC(=O)c1ccc(OCCNC(=O)NCc2ccncc2)cc1O)C(=O)O [Example 256, (2S)-3-({2-hydroxy-4-[2-({[(pyridin-4-ylmethyl)amino]carbonyl}-amino)ethoxy]-benzoyl}amino)-2-{[(octyloxy)carbonyl]amino}propanoic acid] |
| 1.26 | CC(C)(C)COC(=O)N[C@@H](CNC(=O)c1ccc(OCCNC(=O)NCc2ccncc2)cc1O)C(=O)O [Example 257, (2S)-3-({2-hydroxy-4-[2-({[(pyridin-4-ylmethyl)amino]carbonyl}-amino)ethoxy]-benzoyl}amino)-2-{[(neopentyloxy)carbonyl]amino}propanoic acid] |
| 4.31 | O=C(NCCOc1ccc(C(=O)NC[C@H](NC(=O)OCC(Cl)(Cl)Cl)C(=O)O)c(O)c1)NCc1ccncc1 [Example 258, (2S)-3-({2-hydroxy-4-[2-({[(pyridin-4-ylmethyl)amino]carbonyl}amino)-ethoxy]-benzoyl}amino)-2-{[(2,2,2-trichloroethoxy)carbonyl]amino}propanoic acid] |
| 20.2 | Cc1ccc(CNC(=O)NCCOc2ccc(C(=O)NC[C@H](NC(=O)OCc3ccccc3)C(=O)O)c(O)c2)cc1 [Example 261, (2S)-2-{[(benzyloxy)carbonyl]amino}-3-({2-hydroxy-4-[2-({[(4-methylbenzyl)-amino]carbonyl}amino)ethoxy]benzoyl}amino)propanoic acid] |
| 12.6 | COc1ccc(CNC(=O)NCCOc2ccc(C(=O)NC[C@H](NC(=O)OCc3ccccc3)C(=O)O)c(O)c2)cc1 [Example 262, (2S)-2-{[(benzyloxy)carbonyl]amino}-3-({2-hydroxy-4-[2-({[(4-methoxybenzyl)-amino]carbonyl}amino)ethoxy]benzoyl}amino)propanoic acid] |
| 29 | O=C(NCCOc1ccc(C(=O)NC[C@H](NC(=O)OCc2ccccc2)C(=O)O)c(O)c1)NCc1ccc(Cl)cc1 [Example 263, (2S)-2-{[(benzyloxy)carbonyl]amino}-3-({4-[2-({[(4-chlorobenzyl)amino]-carbonyl}-amino)ethoxy]-2-hydroxybenzoyl}amino)propanoic acid] |
| 59.3 | CN(C)c1ccc(CNC(=O)NCCOc2ccc(C(=O)NC[C@H](NC(=O)OCc3ccccc3)C(=O)O)c(O)c2)cc1 [Example 264, (2S)-2-{[(benzyloxy)carbonyl]amino}-3-[(4-{2-[({[4-(dimethylamino)benzyl]-amino}carbonyl)amino]ethoxy}-2-hydroxybenzoyl)amino]propanoic acid] |
| 12.9 | NS(=O)(=O)c1ccc(CNC(=O)NCCOc2ccc(C(=O)NC[C@H](NC(=O)OCc3ccccc3)C(=O)O)c(O)c2)cc1 [Example 265, (2S)-3-[(4-{2-[({[4-(aminosulfonyl)benzyl]amino}carbonyl)amino]ethoxy}-2-hydroxybenzoyl)amino]-2-{[(benzyloxy)carbonyl]amino}propanoic acid] |
| 29.6 | O=C(NCCOc1ccc(C(=O)NC[C@H](NC(=O)OCc2ccccc2)C(=O)O)c(O)c1)NCc1ccc(OC(F)(F)F)cc1 [Example 266, (2S)-2-{[(benzyloxy)carbonyl]amino}-3-[(2-hydroxy-4-{2-[({[4-(trifluoromethoxy)-benzyl]amino}carbonyl)amino]ethoxy}benzoyl)amino]propanoic acid] |

| Compound | IC50 [µM] |
| --- | --- |
| CCCCOC(=O)N[C@@H](CNC(=O)c1ccc(OCCNC(=O)NCc2ccccc2)cc1O)C(=O)O [Example 231, (2S)-3-{[4-(2-{[(benzylamino)carbonyl]amino}ethoxy)-2-hydroxybenzoyl]amino}-2-[(butoxycarbonyl)amino]propanoic acid] | 6.7 |
| CC(C)COC(=O)N[C@@H](CNC(=O)c1ccc(OCCNC(=O)NCc2ccccc2)cc1O)C(=O)O [Example 232, (2S)-3-{[4-(2-{[(benzylamino)carbonyl]amino}ethoxy)-2-hydroxybenzoyl]amino}-2-[(isobutoxycarbonyl)amino]propanoic acid] | 3.7 |
| CC(C)COC(=O)N[C@@H](CNC(=O)c1ccc(OCCNC(=O)NCc2cccnc2)cc1O)C(=O)O [Example 246, (2S)-3-({2-hydroxy-4-[2-({[(pyridin-3-ylmethyl)amino]carbonyl}-amino)ethoxy]-benzoyl}amino)-2-[(isobutoxycarbonyl)amino]propanoic acid] | 1.6 |
